Laboratory results reported in patent US6660320B1, “Process for producing an antioxidant extract from the bearberry plant” (University of Saskatchewan Technologies Inc., priority 1999, dated 2003).

Key:
[1] = β-carotene-linoleate model system; details: 0.5 mg of BHA per 5 mL emulsion, 50° C., FIG. 1
Method: The antioxidant activity of the bearberry extract was evaluated using a β-carotene-linoleate model system (Miller, 1971). Briefly, 2-mg quantities of β-carotene were dissolved in 10 mL of chloroform. One millilitre of this solution was then pipetted into a small round-bottom flask. After removing the chloroform using a rotary evaporator, 20 mg of purified linoleic acid, 200 mg of Tween 40 emulsifier and 50 mL of aerated, distilled water were added to the flask with vigorous stirring. Aliquots (5 mL) of prepared emulsion were transferred to a series of tubes containing 2 mg of extract or 0.5 mg of BHA. As soon as the emulsion was added to each tube, the zero time absorbance was read at 470 nm (nanometers) against a reagent blank using a spectrophotometer. Subsequent absorbance readings were recorded at 15-minute intervals by keeping the samples in water bath at 50° C. until the color of β-carotene disappeared.

[2] = meat model system, TBARS of cooked comminuted pork
Method: The efficacy of the bearberry extract was tested in a meat model system. Pork cushions were obtained from Mitchell's Gourmet Foods, Ltd. (Saskatoon, SK). The meat was ground two times through a ⅛-inch plate using a Biro grinder/food mixer (AMFG Model 24, Marblehead, Ohio). Pork from the meat block was transferred to Mason jars and mixed with 20% (w/w) distilled water and various additives. Meat systems were thermal processed in an 85° C. thermostated water bath with occasional stirring by a glass rod until an internal temperature of 75±1° C. was reached. The meat systems were cooled to room temperature, homogenized in an Osterizer (Sunbeam Corporation [Canada] Ltd., Toronto, ON) blender for 30 seconds, transferred to Whirl Pak bags (Systems Plus, New Hamburg, ON) and refrigerated at 4° C. until used.
(§1) Thiobarbituric reactive substances (TBARS) were determined for the bearberry extract (Witte et al.,1970, and Bedinghaus and Ockerman, 1995). Briefly, a 5-g portion of each sample was transferred to a stomacher bag in which 50 mL of a 20% (w/v) TCA and 1.6% (v/v) phosphoric acid solution were added. Each sample was stomached (Stomacher Lab-Blender 400, Model BA6021, A. J. Seward, Co., Bury St. Edmunds, UK) for 2 minutes and then 50 mL of cold distilled water were added. After blending for an additional minute, each sample was filtered through Whatman #1 filter paper into a 100-mL volumetric flask. Each flask was filled to mark with distilled water/TCA solution (1:1 v/v) and its contents were mixed well. Five-mL aliquots from each sample were pipetted to polypropylene conical centrifuge tubes (VWR Canlab, Mississauga, ON) to which an equivalent volume of a 0.02 M aqueous TBA reagent was added. Tubes were capped and heated in a boiling water bath for 35 minutes, and then cooled in an ice bath. Absorbance measurements of the pink-colored chromogen were made at 532 nm against a reagent blank using a spectrophotometer. A ‘k’ factor of 20.1 was determined from a calibration curve based on addition of known quantities of the malonaldehyde precursor, 1,1,3,3-tetramethoxypropane, to cooked meat samples prior to extraction and an average recovery of 85.5% was found.

[3] = TBA analysis of cooked pork patties; details: 50 ppm TBHQ; 200 ppm bearberry extract; both formulations, stored at 4° C.
Method: as §1, with “Tubes were capped and heated in a boiling water bath for 35 minutes, and then cooled in an ice bath.” left out, “found. […]” for “found.”
TBA reactive substances were determined in cooked pork patties over the course of the study as has been previously described.

SMILES | inhibition of β-carotene consumption throughout the incubation [1] | TBARS Values ([2]; Table 3, 50 ppm, 1 day of storage at 4° C.) | TBARS Values ([2]; Table 3, 50 ppm, 3 days of storage at 4° C.) | TBARS Values ([2]; Table 3, 50 ppm, 5 days of storage at 4° C.) | TBARS Values ([2]; Table 3, 50 ppm, 7 days of storage at 4° C.) | TBARS Values ([2]; Table 3, 50 ppm, 14 days of storage at 4° C.) | TBARS Values ([2]; Table 4, 50 ppm, 1 day of storage at 4° C.) | TBARS Values ([2]; Table 4, 50 ppm, 3 days of storage at 4° C.) | TBARS Values ([2]; Table 4, 50 ppm, 5 days of storage at 4° C.) | TBARS Values ([2]; Table 4, 50 ppm, 7 days of storage at 4° C.) | TBARS Values ([2]; Table 4, 50 ppm, 14 days of storage at 4° C.) | TBA results, lipid oxidation during storage [3]
COc1ccc(O)c(C(C)(C)C)c1 [BHA, butylated hydroxyanisole] | completely inhibited β-carotene consumption |  |  |  |  |  |  |  |  |  |  | 
CC(C)(C)c1cc(O)ccc1O [TBHQ, tert-butylhydroquinone] |  | 0.10 mg malonaldehyde eq./kg sample | 0.10 mg malonaldehyde eq./kg sample | 0.10 mg malonaldehyde eq./kg sample | 0.20 mg malonaldehyde eq./kg sample | 0.34 mg malonaldehyde eq./kg sample | 0.10 mg malonaldehyde eq./kg sample | 0.10 mg malonaldehyde eq./kg sample | 0.10 mg malonaldehyde eq./kg sample | 0.23 mg malonaldehyde eq./kg sample | 0.45 mg malonaldehyde eq./kg sample | retarded lipid oxidation during storage
